Source: patent US6441162B2, “Crystalline substance of cefditoren pivoxyl and the production of the same” (Meiji Seika Kaisha, Ltd., priority 1996, dated 2002)

Experiment: Thermal stability on storage in sealed dry containers, residual Cefditoren pivoxyl by liquid chromatography
Type: physicochemical
Settings: sealed dry container; for Residual quantity (%) of Cefditoren pivoxyl upon storage at 60° C., Initial content (at 0 day): initial content assumed to be 100%
Excerpt: In order to test the thermal stability on storage of the new crystalline substance of Cefditoren pivoxyl according to this invention, in comparison with the known, amorphous form of Cefditoren pivoxyl, there were employed a sample of the crystalline Cefditoren pivoxyl which was produced in Example 1 given hereinafter, as well as a sample of the amorphous Cefditoren pivoxyl which was produced by admixing a solution of amorphous Cefditoren pivoxyl in methanol with an aqueous iso-propanol to precipitate an amorphous powder of this compound and separating and drying this powder under a reduced pressure. These samples were separately placed in sealed dry containers and were stored for 1 month, for 2 months and for 4 months at 60° C. and at 40° C., respectively. After these storages, the samples were analysed by a liquid chromatographic method and percentages of the residual quantity of Cefditoren pivoxyl remaining in the stored samples were evaluated from the area under the absorption peak which was shown in the chromatogramms obtained. It is assumed that the initial content of Cefditoren pivoxyl in the test samples was 100% at the starting of the storages.

Row | Compound | Residual quantity (%) of Cefditoren pivoxyl upon storage at 60° C., After 1 month | Residual quantity (%) of Cefditoren pivoxyl upon storage at 60° C., After 2 months | Residual quantity (%) of Cefditoren pivoxyl upon storage at 60° C., Initial content (at 0 day) | Residual quantity of Cefditoren pivoxyl after the 4-month storage at 40° C. (40° C., 4 months) | Residual quantity (%) of Cefditoren pivoxyl upon storage at 60° C., After 2 months (listed as crystalline substance of Cefditoren pivoxyl)
1 | CO/N=C(\C(=O)NC1C(=O)N2C(C(=O)OCOC(=O)C(C)(C)C)=C(/C=C\c3scnc3C)CS[C@H]12)c1csc(N)n1 (some centres unmarked) [Amorphous substance, 7-[(Z)-2-(2-aminothiazol-4-yl)-2-methoxyiminoacetamido]-3-[(Z)-2-(4-methylthiazol-5-yl)ethenyl]-3-cephem-4-carboxylic acid pivaloyloxymethyl ester, reference compound] | 93% | 88% | 100% | – | –
2 | CO/N=C(\C(=O)NC1C(=O)N2C(C(=O)OCOC(=O)C(C)(C)C)=C(/C=C\c3scnc3C)CS[C@H]12)c1csc(N)n1 (some centres unmarked) [Crystalline substance, 7-[(Z)-2-(2-aminothiazol-4-yl)-2-methoxyiminoacetamido]-3-[(Z)-2-(4-methylthiazol-5-yl)ethenyl]-3-cephem-4-carboxylic acid pivaloyloxymethyl ester] | 99% | 99% | 100% | 99% | 99%
